Measurements from PubChem BioAssay AID624166 (Johns Hopkins Ion Channel Center, 2012).
Active and inactive are the calls of the source.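 The calls were made as follows: active = raises the calcium signal in non-induced parental cells at some tested dose and a dose-response curve can be fitted; inactive = no activation at any dose, or no dose-response curve.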

Test system: not listed separately
Experiment: M3R signalling without RGS4 expression – cell-based, HEK293 M3R, non-induced RGS4, SAR compounds, counter-screen for RGS4 potentiator project, SAR follow-up (AID 624166)
Conditions: HEK293 M3R non-induced RGS4, carbachol calcium Fluo4; at 33.3 µM (top of the series)

Question: With `O=C(CNC1CCCCCC1)Nc1ccc(S(=O)(=O)NC2CC2)cc1` as the compound, how does the calcium response, lower = inhibition read?
Answer: 19.6 (inactive)

Question: With `O=C(Nc1ccccc1N1CCN(C(=O)c2ccccc2)CC1)c1ccc(Cl)o1` as the compound, how does the calcium response, lower = inhibition read?
Answer: 17.2 (inactive)

Question: For `Cc1ccc(NC(=O)c2cc(-c3cccs3)nc3ccccc23)nc1`, which calcium response, lower = inhibition is on record?
Answer: 52.7 (inactive)

Question: Which calcium response, lower = inhibition does the source give for `O=C(CNc1ccccc1)c1ccc([N+](=O)[O-])cc1` here?
Answer: 24.6 (inactive)

Test system: HEK293 M3R non-induced RGS4, carbachol calcium Fluo4
Experiment: as above
Conditions: not given

Question: Which EC50 does the source give for `CC(C)Cn1c(-c2ccc(F)cc2)n[nH]c1=S` here?
Answer: 4.11 µM

Question: Which EC50 does the source give for `CCN1CCCC1CNCc1ccccc1OCc1ccc(F)cc1` (stereo not drawn) here?
Answer: 10.8 µM

Question: For `S=c1[nH]nc(-c2ccc(Cl)cc2)n1CC1CCCO1` (stereo not drawn), which EC50 is on record?
Answer: 7.62 µM

Question: For `CCCCn1c(-c2csc(CCC)c2)n[nH]c1=S`, which EC50 is on record?
Answer: 3.34 µM

Question: Which EC50 does the source give for `COC(=O)C1CCCN(C(=O)c2cc(-c3ccc(C)cc3)nc3ccccc23)C1` (stereo not drawn) here?
Answer: 16.1 µM

Question: Which EC50 does the source give for `Cc1ccc(S(=O)(=O)c2ccc(Oc3cccc(C)c3)cc2)cc1` here?
Answer: 2.7 µM

Question: Which EC50 does the source give for `CCn1cc(CN2CCC(n3nccc3NC(=O)c3ccc(OC)cc3)CC2)cn1` here?
Answer: 9.27 µM

Question: With `COC(=O)c1cccc(Nc2nc(-c3cccnc3)nc3ccccc23)c1` as the compound, how does the EC50 read?
Answer: 5.82 µM

Question: For `CN(Cc1ccc(F)cc1)C(=O)C(c1ccccc1)c1ccccc1`, which EC50 is on record?
Answer: 3.18 µM
